Laboratory results as given in patent publication US5100907A, “Hydantoin esters” (Lonza, Inc., priority 1990, dated 1992).

Columns and labels:
[1] = Total available formaldehyde (TF) and free formaldehyde (FF) levels of esters (I); assay type: physicochemical; conditions: for FF (free formaldehyde) / TF (total available formaldehyde): neat ester, Table 3
Text: Thus, whether the formaldehyde content is chemically bonded to the hydantoin moiety or is free formaldehyde (FF) in solution, e.g., in water as formaldehyde or methylene glycol [CH2 (OH)2 ], it remains available for biocidal action. Due to this direct relation, the weight percent TF in a given preparation of the ester (I), e.g. a cosmetic formulation, can be predicted accurately, regardless of the level of dilution.

Staphylococcus aureus = test: Antimicrobial study against Staphylococcus aureus (gram-positive bacteria); assay type: cell-based; conditions: methylolated C8/10 10,800 ppm, methylolated lauric 11,400 ppm, DMDMH 3,000 ppm, others 14,700 ppm
Method: (§1) The antimicrobial properties of typical esters (I) and (Ia) were tested by minimum inhibitory concentration (MIC) tests, along with certain known substances, against […] strains of organisms: a mold, Aspergillus niger; a gram-positive bacteria, Staphylococcus aureus; and two gram-negative bacteria, Escherichia coli and Pseudomonas aeruginosa. […] These tests were used to determine any effect on biocidal activity of the varying chain length of the ester.
(§2) The known substances, on which identical tests were also performed, included the biocide, dimethyloldimethylhydantoin or DMDMH (iv), and a series of three surfactants, i.e., the three common emulsifiers, sodium lauryl sulfate (SLS); ethylene glycol distearate (EGDS), in the form of the commercial product PEGOSPERSE 50 DS (Lonza Inc.); and polyoxyethylene 20 sorbitan monoleate (POE 20 SMO), in the form of the commercial product GLYCOSPERSE 0 20 (Lonza Inc.).
(§3) The tests entailed contaminating a preexisting micro-colony with a known quantity (ppm, concentration) of test material. Each colony was then examined periodically over a one week period. […] A test was deemed non-efficacious when there was no decrease in colony size. In an effort to avoid any possible solvent effect, the micro-study was conducted in a totally aqueous solvent system without use of any other solvent.

Pseudomonas aeruginosa = test: Antimicrobial study against Pseudomonas aeruginosa (gram-negative bacteria); assay type: cell-based; conditions: methylolated C8/10 10,800 ppm, methylolated lauric 11,400 ppm, DMDMH 3,000 ppm, others 14,700 ppm
Method: as §1, §2, §3

Staphylococcus species a = test: Preservative challenge test against Staphylococcus species a; assay type: cell-based; conditions: end of 14 day period
Method: Microbiological challenge tests were also conducted with the lauric and oleic esters (I), representing molecules having C12 and C18 aliphatic fatty acid chain length moieties, respectively.
These preservative challenge tests were used to determine the biocidal performance of these two esters (I) in aqueous solution and dispersion formulations inoculated with a given one of two test organisms, previously isolated from a contaminated calcium carbonate (CaCO3) dispersion, i.e. gram-positive bacteria, designated Staphylococcus species a and Staphylococcus species b, as compared to three known biocides or preservatives, designated as DANTOGARD (trademark), Tektamer 38 (1,2-dibromo-2,4-dicyanobutane) and Nuodex PMA-18.
The solution formulation was represented by the inclusion of the test sample as preservative system in deionized water, and the dispersion formulation was represented by the inclusion of the test sample as preservative system in a CaCO3 aqueous dispersion (identified as Hydrocarb 60), the latter typifying a dispersed pigment medium, e.g. as used in a paint or other industrial dispersion or slurry. The antimicrobial activity of the test samples was evaluated at individually selective concentrations.
All these liquid samples were stored at room temperature until the start of the tests. The test organisms were maintained or nutrient agar at 4° C. and subcultured in nutrient broth (Difco), and a 24 hour culture incubated at 35° C. was used for the testing over a challenge test time period of 14 days.
The test formulations were prepared per a standardized procedure, by placing 20 ml aliquots of the stored sample into sterile test tubes, and then adding 0.1 ml of a standardized 10^6 suspension of a 24 hour culture in nutrient broth. Plate counts were taken immediately to determine the initial level of the microbial population, and the containers were incubated at 20°-25° C. Plate counts were retaken at 1, 3, 7 and 14 days, with the final reductions being calculated from the 14 days results.

[2] = Dispersion stability tests; assay type: physicochemical; conditions: for stability of dispersions in water: 0.5%, and even 5% active levels
Method: The dispersion stability tests were performed on the esters (I) to determine the extent each was able to disperse itself in an aqueous medium.
The dispersions were prepared by homogenizing a mixture of the test ester and water, after which repeated examination of the sample was effected for a period of 55 days. This test method is fully indicative of the dispersibility of these esters (I).
The dispersion tests were performed with the esters at 0.5% and 5.0% active levels in water, prepared by combining the test ester with distilled water, and homogenizing the mixture for one to three minutes, via a Kika-Werk Ultra-Turrax S D-45 homogenizer. The dispersions were poured into an eight ounce flint jar, capped, and periodically examined over a 55 day period.

Emulsion stability tests = assay type: physicochemical
Method: Emulsion stability tests were performed on the esters (I), and for comparison on the precursor esters (Ia), to determine the extent to which each stabilized a standardized solution of water and an oil, using a common procedure consisting of homogenizing a mixture containing the test ester (2%), myristyl propionate (7%), and water (91%). While two emulsifiers are normally used to prepare a cosmetic formulation, e.g. one with a high HLB and the other with a low HLB, the test method herein using only one emulsifier, i.e. the test ester, is fully indicative of the emulsifying attributes of these esters.
The tests were performed with emulsions (500 g), prepared by combining the test ester (10.0 g), myristyl propionate (35 g), and distilled water (455 g) in a container and homogenizing the contents for one minute, via a Kika-Werk Ultra-Turrax S D-45 homogenizer. The emulsions were poured into a one pound flint jar, capped, and periodically examined over a 55 day period.

[3] = 1% active concentration in water

CCCCCCCCCCCC(=O)OCCN1C(=O)N(CO)C(=O)C1(C)C [Methylolated Lauric Ester, 2-(3-hydroxymethyl-5,5-dimethyl-1,3-diazacyclopentane-2,4-dion-1-yl)-ethylester of lauric acid]
FF (free formaldehyde) [1]: 0.2 Wt. % | TF (total available formaldehyde) [1]: 8.0 Wt. % | Colony Count (Staphylococcus aureus; Day 0): TNC | Colony Count (Staphylococcus aureus; Day 1): 4,000 × 1,000 | Colony Count (Staphylococcus aureus; Day 2): < 0.01 × 1,000 | Colony Count (Staphylococcus aureus; Day 3): < 0.01 × 1,000 | Colony Count (Staphylococcus aureus; Day 7): < 0.01 × 1,000 | Colony Count (Pseudomonas aeruginosa; Day 0): TNC | Colony Count (Pseudomonas aeruginosa; Day 1): < 0.01 × 1,000 | Colony Count (Pseudomonas aeruginosa; Day 2): < 0.01 × 1,000 | Colony Count (Pseudomonas aeruginosa; Day 3): < 0.01 × 1,000 | Colony Count (Pseudomonas aeruginosa; Day 7): < 0.01 × 1,000 | effectiveness as preservative (Staphylococcus species a; water): effective as preservatives in water | dispersion quality, decreasing order of rank [2]: isostearate>oleate>cocoate>laurate>C8/10ester>>stearate>acetate | stability of dispersions in water [2]: stable for weeks | ability to stabilize emulsions (Emulsion stability tests): the best emulsifiers tested | duration of stabilized emulsions (Emulsion stability tests): more than 22 days | emulsion quality, decreasing order of rank (Emulsion stability tests): cocoate, laurate>oleate,isostearate>stearate>C8/10 ester>acetate

CCCCCCCC/C=C\CCCCCCCC(=O)OCCN1C(=O)N(CO)C(=O)C1(C)C [Methylolated Oleic Ester, 2-(3-hydroxymethyl-5,5-dimethyl-1,3-diazacyclopentane-2,4-dion-1-yl)-ethylester of oleic acid]
Calculated TF [1, 3]: 0.065 Wt. % | Determined FF [1, 3]: 0.0112 Wt. % | Ratio FF/TF [1, 3]: 0.172 | TF ([1]; at a concentration of 1.0%): 0.4 wt. % | FF (free formaldehyde) [1]: 0.2 Wt. % | TF (total available formaldehyde) [1]: 6.5 Wt. % | Colony Count (Staphylococcus aureus; Day 0): TNC | Colony Count (Staphylococcus aureus; Day 1): 4,200 × 1,000 | Colony Count (Staphylococcus aureus; Day 2): < 0.01 × 1,000 | Colony Count (Staphylococcus aureus; Day 3): < 0.01 × 1,000 | Colony Count (Staphylococcus aureus; Day 7): < 0.01 × 1,000 | Colony Count (Pseudomonas aeruginosa; Day 0): TNC | Colony Count (Pseudomonas aeruginosa; Day 1): < 0.01 × 1,000 | Colony Count (Pseudomonas aeruginosa; Day 2): < 0.01 × 1,000 | Colony Count (Pseudomonas aeruginosa; Day 3): < 0.01 × 1,000 | Colony Count (Pseudomonas aeruginosa; Day 7): < 0.01 × 1,000 | effectiveness as preservative (Staphylococcus species a; calcium carbonate aqueous dispersions): effective as a preservative in calcium carbonate aqueous dispersions | effectiveness as preservative (Staphylococcus species a; water): effective as preservatives in water | dispersion quality, decreasing order of rank [2]: isostearate>oleate>cocoate>laurate>C8/10ester>>stearate>acetate | stability of dispersions in water [2]: stable for weeks | emulsion quality, decreasing order of rank (Emulsion stability tests): cocoate, laurate>oleate,isostearate>stearate>C8/10 ester>acetate
